Reference: US5231013A, “Polycyclic peptide antibiotic gallidermin” (priority 1988, dated 1993)
No end group written: not given here.

Legend:
Format in all cases: cell-based
Propionibacterium acnes = experiment: Comparative MIC study with epidermin
Description: In a comparative study with epidermin or Propionibacterium acnes the following MIC values were obtained: […]

Bac. fragilis (Bonn) = experiment: MIC in liquid BF medium
Method: (§1) Minimal inhibitory concentrations (MIC, Table 1) were determined in liquid BF medium of the following composition: sodium lactate 0.5%, sodium sulfate 0.5%, potassium dihydrogenphosphate 0.05%, dipotassium hydrogenphosphate 0.15%, magnesium chloride 0.02%, ammonium chloride 0.05%, glucose 1%; supplemented (per ml) with Ca-pantothenate 50 μg, folic acid 0.25 μg, niacin 50 μg, p-aminobenzoic acid 25 μg, pyridoxal hydrochloride 50 μg and riboflavin 25 μg.

Bac. fragilis (Koln) = experiment: MIC in liquid BF medium
Method: as §1

Cb. xerosis ATCC 9755 = experiment: MIC in liquid BF medium
Method: as §1

E. coli ATCC 11775 = experiment: MIC in liquid BF medium
Method: as §1

Mc. luteus 15957 = experiment: MIC in liquid BF medium
Method: as §1

Mc. luteus ATCC 9341 = experiment: MIC in liquid BF medium
Method: as §1

[1] = test system: Peptostreptococcus anaerobicus; experiment: MIC in liquid BF medium
Method: as §1

Ps. aeruginosa BC 19 = experiment: MIC in liquid BF medium
Method: as §1

Sc. faecalis ATCC 29212 = experiment: MIC in liquid BF medium
Method: as §1

Sc. pyogenes ATCC 8668 = experiment: MIC in liquid BF medium
Method: as §1

St. aureus E 88 = experiment: MIC in liquid BF medium
Method: as §1

St. aureus SG 511 = experiment: MIC in liquid BF medium
Method: as §1

[2] = test system: St. epidermidis ATCC 12228; experiment: MIC in liquid BF medium
Method: as §1

St. pneumoniae ATCC 6302 = experiment: MIC in liquid BF medium
Method: as §1

Row | Substance | MIC (Propionibacterium acnes) [µg/mL] | MIC (Bac. fragilis (Bonn)) [µg/mL] | MIC (Bac. fragilis (Koln)) [µg/mL] | MIC (Cb. xerosis ATCC 9755) [µg/mL] | MIC (E. coli ATCC 11775) [µg/mL] | MIC (Mc. luteus 15957) [µg/mL] | MIC (Mc. luteus ATCC 9341) [µg/mL] | MIC [1] [µg/mL] | MIC (Ps. aeruginosa BC 19) [µg/mL] | MIC (Sc. faecalis ATCC 29212) [µg/mL] | MIC (Sc. pyogenes ATCC 8668) [µg/mL] | MIC (St. aureus E 88) [µg/mL] | MIC (St. aureus SG 511) [µg/mL] | MIC [2] [µg/mL] | MIC (St. pneumoniae ATCC 6302) [µg/mL]
1 | Epidermin (IASKFICTPGCAKTGSFNSYCC; cysteine pairing not given here; also: lantibiotic: post-translational modifications not placed; UniProt P08136 31-52, looked up) [known polycyclic lanthionine peptide antibiotic obtained by cultivating a strain of Staphylococcus epidermis; differs from gallidermin by one amino acid, reference compound] | 0.25 | – | – | – | – | – | – | – | – | – | – | – | – | – | –
2 | Gallidermin (IASKFLCTPGCAKTGSFNSYCC; cysteine pairing not given here; also: lantibiotic: post-translational modifications not placed; UniProt P21838 31-52, looked up) [polycyclic lanthionine peptide antibiotic produced by cultivation of Staphylococcus gallinarum (F16/P57) Tu 3928 (DSM 4616)] | 0.125 | 128 | 128 | 1 | 128 | 0.5 | 0.25 | 0.5 | 128 | 64 | 1 | 8 | 4 | 4 | 4
